Among the test systems are NCI-H460; RXF 393; A498; RPMI-8226; KM12; SW-620; SK-OV-3; M14; DU-145; K562; SF-268; TK-10; MDA-MB-435; PC-3; SK-MEL-5; M19-MEL; Hs-578T; MDA-N; CCRF-CEM; SK-MEL-2.
Experiment in all cases: NCI tumour cell line growth inhibition, 48 h

Structures are written as SMILES.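 Grown in 96-well plates, cells were treated for 48 hours with each compound at five concentrations. Insufficient inhibition: endpoint recorded as highest concentration tested. GI50 marks 50% less growth.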 Calls of active or inactive are those of the source. Rule as the data show it: active = GI50 up to about 1.1 µM and inactive = higher.

For `C=C(CN(C)C)C(=O)c1ccc(OC)cc1`, the GI50 is 21.8 µM (inactive) with NCI-H460; 10 µM (inactive) with RXF 393; 9.79 µM (inactive) in the experiment with A498; 2.11 µM (inactive) in the experiment on RPMI-8226; 14.5 µM (inactive) with KM12; 0.771 µM (active) with SW-620. For the same compound, the GI50 in the experiment on SK-OV-3 is 24.7 µM (inactive); with M14, 2.5 µM (inactive); in the experiment on DU-145, 4.97 µM (inactive); in the experiment on K562 it was 0.622 µM (active); with SF-268, 6.05 µM (inactive); in the experiment with TK-10, 2.24 µM (inactive). The GI50 in the experiment with MDA-MB-435 was 10.5 µM (inactive); with PC-3, 15.2 µM (inactive); in the experiment with SK-MEL-5, 8.24 µM (inactive); in the experiment on M19-MEL, 2.07 µM (inactive); in the experiment on Hs-578T, 15.5 µM (inactive); in the experiment with MDA-N it was 7.46 µM (inactive). The results for the GI50 in the experiment on CCRF-CEM and with SK-MEL-2 were 0.186 µM (active) and 4.61 µM (inactive), respectively.

The record behind these values is ChEMBL document CHEMBL1201862, “PubChem BioAssay data set” (2004).
